Data published in the NIST ThermoML archive (doi:10.1016/j.jct.2006.11.003).
± gives the expanded uncertainty stated by the source.

Experiment: xn = mol fraction of the nth substance listed
Conditions: 101 kPa, Liquid

Cc1ccccc1C [1,2-dimethylbenzene] + CN1CCCC1=O
Conditions | mass density [kg/m3]
293.15 K, x1 = 0.0478 | 1024.81 ± 0.45
293.15 K, x1 = 0.0865 | 1018.48 ± 0.42
293.15 K, x1 = 0.1584 | 1006.82 ± 0.37
293.15 K, x1 = 0.2266 | 995.89 ± 0.36
293.15 K, x1 = 0.2714 | 988.75 ± 0.39
293.15 K, x1 = 0.3393 | 978.06 ± 0.44
293.15 K, x1 = 0.387 | 970.61 ± 0.47
293.15 K, x1 = 0.4321 | 963.63 ± 0.49
293.15 K, x1 = 0.5011 | 953.04 ± 0.54
293.15 K, x1 = 0.5668 | 943.08 ± 0.58
293.15 K, x1 = 0.6297 | 933.64 ± 0.61
293.15 K, x1 = 0.7099 | 921.74 ± 0.66
293.15 K, x1 = 0.7859 | 910.6 ± 0.7
293.15 K, x1 = 0.8577 | 900.18 ± 0.74
293.15 K, x1 = 0.9388 | 888.55 ± 0.79
293.15 K, x1 = 1 | 879.84 ± 0.82
303.15 K, x1 = 0.0565 | 1014.2 ± 0.4
303.15 K, x1 = 0.1122 | 1005.19 ± 0.37
303.15 K, x1 = 0.1895 | 992.78 ± 0.37
303.15 K, x1 = 0.2467 | 983.7 ± 0.41
303.15 K, x1 = 0.3239 | 971.56 ± 0.46
303.15 K, x1 = 0.3967 | 960.27 ± 0.51
303.15 K, x1 = 0.4565 | 951.08 ± 0.54
303.15 K, x1 = 0.5127 | 942.54 ± 0.58
303.15 K, x1 = 0.5655 | 934.58 ± 0.61
303.15 K, x1 = 0.6251 | 925.68 ± 0.64
303.15 K, x1 = 0.7076 | 913.5 ± 0.69
303.15 K, x1 = 0.7626 | 905.46 ± 0.72
303.15 K, x1 = 0.8498 | 892.86 ± 0.77
303.15 K, x1 = 0.9049 | 884.97 ± 0.8
303.15 K, x1 = 0.9639 | 876.58 ± 0.84
303.15 K, x1 = 1 | 871.48 ± 0.86
313.15 K, x1 = 0.0485 | 1006.39 ± 0.37
313.15 K, x1 = 0.0922 | 999.35 ± 0.35
313.15 K, x1 = 0.1795 | 985.39 ± 0.4
313.15 K, x1 = 0.2368 | 976.31 ± 0.44
313.15 K, x1 = 0.3036 | 965.84 ± 0.48
313.15 K, x1 = 0.3679 | 955.86 ± 0.52
313.15 K, x1 = 0.4285 | 946.56 ± 0.56
313.15 K, x1 = 0.4894 | 937.31 ± 0.6
313.15 K, x1 = 0.5375 | 930.05 ± 0.63
313.15 K, x1 = 0.6034 | 920.22 ± 0.67
313.15 K, x1 = 0.673 | 909.94 ± 0.71
313.15 K, x1 = 0.7355 | 900.8 ± 0.74
313.15 K, x1 = 0.8196 | 888.65 ± 0.79
313.15 K, x1 = 0.8767 | 880.48 ± 0.82
313.15 K, x1 = 0.9289 | 873.06 ± 0.85
313.15 K, x1 = 1 | 863.03 ± 0.89
323.15 K, x1 = 0.0478 | 997.82 ± 0.35
323.15 K, x1 = 0.1014 | 989.16 ± 0.39
323.15 K, x1 = 0.1603 | 979.74 ± 0.43
323.15 K, x1 = 0.2364 | 967.69 ± 0.48
323.15 K, x1 = 0.3026 | 957.34 ± 0.52
323.15 K, x1 = 0.3575 | 948.83 ± 0.55
323.15 K, x1 = 0.4244 | 938.56 ± 0.59
323.15 K, x1 = 0.4915 | 928.37 ± 0.63
323.15 K, x1 = 0.5582 | 918.35 ± 0.67
323.15 K, x1 = 0.6217 | 908.9 ± 0.71
323.15 K, x1 = 0.6735 | 901.26 ± 0.74
323.15 K, x1 = 0.7536 | 889.56 ± 0.79
323.15 K, x1 = 0.8206 | 879.9 ± 0.82
323.15 K, x1 = 0.8728 | 872.43 ± 0.85
323.15 K, x1 = 0.9511 | 861.36 ± 0.9
323.15 K, x1 = 1 | 854.51 ± 0.93
333.15 K, x1 = 0.0579 | 986.94 ± 0.4
333.15 K, x1 = 0.1023 | 979.83 ± 0.43
333.15 K, x1 = 0.1814 | 967.25 ± 0.48
333.15 K, x1 = 0.2556 | 955.59 ± 0.52
333.15 K, x1 = 0.3135 | 946.59 ± 0.56
333.15 K, x1 = 0.3815 | 936.11 ± 0.6
333.15 K, x1 = 0.4478 | 926.02 ± 0.64
333.15 K, x1 = 0.5014 | 917.94 ± 0.68
333.15 K, x1 = 0.5654 | 908.37 ± 0.71
333.15 K, x1 = 0.6122 | 901.45 ± 0.74
333.15 K, x1 = 0.6632 | 893.96 ± 0.77
333.15 K, x1 = 0.8105 | 872.67 ± 0.85
333.15 K, x1 = 0.8744 | 863.57 ± 0.89
333.15 K, x1 = 0.9214 | 856.93 ± 0.92
333.15 K, x1 = 0.9632 | 851.06 ± 0.94
333.15 K, x1 = 1 | 845.91 ± 0.96
343.15 K, x1 = 0.0462 | 979.94 ± 0.43
343.15 K, x1 = 0.1045 | 970.59 ± 0.46
343.15 K, x1 = 0.1614 | 961.55 ± 0.5
343.15 K, x1 = 0.2153 | 953.05 ± 0.53
343.15 K, x1 = 0.2864 | 941.94 ± 0.58
343.15 K, x1 = 0.3576 | 930.94 ± 0.62
343.15 K, x1 = 0.4102 | 922.9 ± 0.66
343.15 K, x1 = 0.4828 | 911.91 ± 0.7
343.15 K, x1 = 0.5477 | 902.2 ± 0.74
343.15 K, x1 = 0.6065 | 893.5 ± 0.77
343.15 K, x1 = 0.6735 | 883.68 ± 0.81
343.15 K, x1 = 0.7533 | 872.13 ± 0.86
343.15 K, x1 = 0.8095 | 864.07 ± 0.89
343.15 K, x1 = 0.8745 | 854.83 ± 0.93
343.15 K, x1 = 0.9407 | 845.51 ± 0.96
343.15 K, x1 = 1 | 837.23 ± 1
353.15 K, x1 = 0.0475 | 970.95 ± 0.46
353.15 K, x1 = 0.1037 | 961.94 ± 0.5
353.15 K, x1 = 0.1582 | 953.26 ± 0.53
353.15 K, x1 = 0.2167 | 944.03 ± 0.57
353.15 K, x1 = 0.2633 | 936.72 ± 0.6
353.15 K, x1 = 0.34 | 924.83 ± 0.65
353.15 K, x1 = 0.4067 | 914.62 ± 0.69
353.15 K, x1 = 0.4529 | 907.6 ± 0.72
353.15 K, x1 = 0.5184 | 897.76 ± 0.76
353.15 K, x1 = 0.5689 | 890.24 ± 0.79
353.15 K, x1 = 0.6322 | 880.91 ± 0.82
353.15 K, x1 = 0.7097 | 869.62 ± 0.87
353.15 K, x1 = 0.7859 | 858.64 ± 0.91
353.15 K, x1 = 0.8511 | 849.36 ± 0.95
353.15 K, x1 = 0.9354 | 837.48 ± 1
353.15 K, x1 = 1 | 828.47 ± 1
